This data set deals with Kornkäfer (sitophilus granarius L). In words: whole plant or invertebrate. Format: in vivo. The note with it: for mortality at 1000 µg/mL: Sitophilus granarius, read-out: Wirksamkeit in % Substanz allein; for mortality at 1000 µg/mL / Wirksamkeit in % Substanz allein: amine 1 mg/ml in Aceton mixed 1 : 1 with Aceton, 2 ml per dish, 25 weevils, dead counted after 3 h; for Wirksamkeit in % Substanz +Ripcord: amine 1 mg/ml mixed 1 : 1 with Ripcord 0,01 mg/ml; for Wirksamkeit in % Substanz +Ripcord / Wirksamkeit in % Substanz +Talcord: 3 h; for Wirksamkeit in % Substanz +Talcord: amine 1 mg/ml mixed 1 : 1 with Talcord 0,01 mg/ml. On the procedure:
Test von tertiären, heterocyclischen Aminen allein und im Gemisch mit Pyrethroiden an Kornkäfern (sitophilus granarius L)
In Petrischalen mit 15 cm Durchmesser mit talcumbepuderten Seitenwänden, um das Entfliehen der Kornkäfer zu verhindern, wurden jeweils 2 ml der Acetonlösungen einpipettiert und durch vorsichtiges Schwenken der Schalen gleichmäßig auf dem Boden verteilt. Nach dem Abdampfen des Acetons und dem Antrocknen der Beläge wurden in jede Schale 25 Kornkäfer eingezählt. Nach einer Stunde wurde jeweils ein 12,5 cm Rundfilter in die Schalen eingelegt, um den Käfern das Befreien aus der Rückenlage zu ermöglichen, was auf der glatten Glasplatte nicht möglich ist. Die lichtscheuen Käfer verkrochen sich mit Vorliebe unter die Filter und blieben so ständig mit den Wirkstoffbelägen in Kontakt. Alle Versuche liefen mit 3 Wiederholungen. Nach 3 h wurden die toten Käfer ausgezählt.
In der Tabelle 3 ist jeweils der Durchschnitt der Summe der 4 Einzelwerte angegeben. 25 tote Kornkäfer entsprechen dabei einer Wirkung von 100 %. Die Temperaturen betrugen während der Tests im Durchschnitt 19 - 21°C. Der synergistische Faktor berechnet sich analog wie in Beispiel 1 angegeben.
Die zu prüfenden tertiären, heterocyclischen Amine wurden - mit 1 mg Wirkstoff pro ml als Acetonlösungen angesetzt. Sie wurden im Verhältnis 1 : 1 mit Ripcord bzw. Talcord, die mit 0,01 mg Wirkstoff pro ml als Acetonlösung vorlagen, gemischt. Die Einzelkomponenten wurden im Verhältnis 1 : 1 mit Aceton gemischt.
Auch bei diesen Versuchen zeigten die Kontrollversuche stets bei Versuchsende eine Mortalität der Kornkäfer von 0 %.
Die synergistische Wirkung der tertiären, heterocyclischen Amine auf die Pyrethroide ist auch dann noch deutlich, wenn das Amin in wesentlich niederen Aufwandmengen eingesetzt wird, als dies in Beispiel 3 beschrieben wurde. Die Ergebnisse sind in der Tabelle 4 zusammengestellt. Dieser Versuch zeigt auch, daß Amine mit insektiziden Eigenschaften, wenn sie in Konzentrationen unterhalb ihres insektiziden Wirkungsbereiches eingesetzt werden, immer noch gute synergistische Wirkungen im Gemisch mit Pyrethroiden zeigen. Die Versuche wurden wie im Beispiel 3 beschrieben mit Kornkäfern durchgeführt. Es wurden lediglich die Konzentrationen der eingesetzten tertiären, heterocyclischen Amine geändert. Für die Verdünnung Pyrethroid : Amin = 1 : 10 wurde das Amin mit 0,1 mg Wirkstoff/ml Acetonlösung eingesetzt. Für die Verdünnung 1 : 5 mit 0,05 mg Wirkstoff/ml.

The mark [1] stands for this setting: amine 1 mg/ml + Ripcord 0,01 mg/ml.
Where [2] appears, read: amine 1 mg/ml + Talcord 0,01 mg/ml.
Setting [3] is: Pyrethroid : Amin 1 : 10, amine 0,1 mg/ml, 180 min.

Consider `C(=Cc1ccccc1)CN1CCOCC1` [N-Cinnamyl-morpholin], for which the mortality at 1000 µg/mL was 0%, the “Wirksamkeit in % Substanz +Ripcord” value is on record as 54,8% and the “Wirksamkeit in % Substanz +Talcord” value is given as 44,0%. The “Synergistischer Faktor bei Ripcord” value under setting [1] is listed as 1,74. Moreover, the “Synergistischer Faktor bei Talcord” value under setting [2] is on record as 4,54.
On to `OCC(CO)(CO)CN1CCCCC1` [N-Piperidino-pentaerythrit], for which the “Wirksamkeit in % Substanz allein” value came to 0%, the “Wirksamkeit in % Substanz +Ripcord” value is recorded as 62,8% and the “Wirksamkeit in % Substanz +Talcord” value is listed as 32,0%. Under setting [1], the “Synergistischer Faktor bei Ripcord” value is on record as 1,99. For the same molecule, the “Synergistischer Faktor bei Talcord” value under setting [2] is given as 3,30.
Turning to `CCOCCN1CCCCC1` [N-1-Ethoxi-ethyl-(2)-piperidin], the “Wirksamkeit in % Substanz allein” value worked out at 0%, the “Wirksamkeit in % Substanz +Ripcord” value is 56,0% and the “Wirksamkeit in % Substanz +Talcord” value is recorded as 0%. Also, the “Synergistischer Faktor bei Ripcord” value under setting [1] is 1,78.
As to `c1ccc(COCCN2CCOCC2)cc1` [N-(2-Benzyloxi-ethyl-(1))-morpholin], the “Wirksamkeit in % Substanz allein” value is recorded as 0%, the “Wirksamkeit in % Substanz +Ripcord” value was 50,8% and the “Wirksamkeit in % Substanz +Talcord” value was 32,0%. Under setting [1], the “Synergistischer Faktor bei Ripcord” value is 1,61. Also, the “Synergistischer Faktor bei Talcord” value under setting [2] is recorded as 3,30.
For the molecule `CCCCCCCCN1CCCCC1CC` (centres unmarked) [N-1-Octyl-2-ethyl-piperidin], the mortality at 1000 µg/mL worked out at 26.8%, the “Wirksamkeit in % Substanz +Ripcord” value was 74,8% and the “Wirksamkeit in % Substanz +Talcord” value is 52,0%. Further, the “Synergistischer Faktor bei Ripcord” value under setting [1] is reported as 1,52. Moreover, the “Synergistischer Faktor bei Talcord” value under setting [2] is reported as 2,60.
On to N-Hydrinden-piperidin, for which the “Wirksamkeit in % Substanz allein” value came out at 0%, the “Wirksamkeit in % Substanz +Ripcord” value is recorded as 42,8% and the “Wirksamkeit in % Substanz +Talcord” value is recorded as 57,2%. For the same molecule, the “Synergistischer Faktor bei Ripcord” value under setting [1] is listed as 1,36. For the same molecule, under setting [2], the “Synergistischer Faktor bei Talcord” value is on record as 5,90.
In the case of `CCOC(=O)CCN1CCOCC1` [N-Morpholino-propionsäure-ethylester], the “Wirksamkeit in % Substanz allein” value amounted to 0%, the “Wirksamkeit in % Substanz +Ripcord” value is reported as 65,2% and the “Wirksamkeit in % Substanz +Talcord” value is on record as 26,8%. Further, under setting [1], the “Synergistischer Faktor bei Ripcord” value is on record as 2,07. Further, under setting [2], the “Synergistischer Faktor bei Talcord” value is given as 2,76.
`c1ccc(CN2CCCC2)cc1` [N-Benzyl-pyrrolidin]: the mortality at 1000 µg/mL is 0%, the “Wirksamkeit in % Substanz +Ripcord” value is reported as 77,2% and the “Wirksamkeit in % Substanz +Talcord” value is recorded as 16,0%. The “Synergistischer Faktor bei Ripcord” value under setting [1] is reported as 2,45. For the same molecule, the “Synergistischer Faktor bei Talcord” value under setting [2] is listed as 1,65.
As for `CCOC(=O)C(c1ccccc1)N1CCCC1` (centres unmarked) [Phenyl-N-pyrrolidin-essigsäure-ethylester], the “Wirksamkeit in % Substanz allein” value is recorded as 0%, the “Wirksamkeit in % Substanz +Ripcord” value is on record as 92,0% and the “Wirksamkeit in % Substanz +Talcord” value is given as 25,2%. The “Synergistischer Faktor bei Ripcord” value under setting [1] is listed as 2,92. Besides, the “Synergistischer Faktor bei Talcord” value under setting [2] is recorded as 2,60.
For the molecule `Clc1ccc(CN2CCCC2)cc1` [N-4-Chlor-benzyl-pyrrolidin], the “Wirksamkeit in % Substanz allein” value worked out at 0%, the “Wirksamkeit in % Substanz +Ripcord” value is 100,0% and the “Wirksamkeit in % Substanz +Talcord” value was 22,8%. Under “Pyrethroid : Amin 1 : 10”, the “Synergistischer Faktor bei Ripcord” value is 3,09 and the “Synergistischer Faktor bei Talcord” value was 7,55. For the same molecule, under setting [3], the “% Wirkung Substanz +Ripcord” value is listed as 97,2% and the “% Wirkung Substanz +Talcord” value is recorded as 73,2%. Also, the “% Wirkung Substanz allein” value (amine 0,1 mg/ml (as for Pyrethroid : Amin 1 : 10), 180 min) is given as 0%. In addition, under setting [1], the “Synergistischer Faktor bei Ripcord” value is 3,17. Besides, under setting [2], the “Synergistischer Faktor bei Talcord” value was 2,35.
Turning to `C(CCCCN1CCCCC1)CCCN1CCCCC1` [1,8-N,N-Di-piperidino-octan], the “Wirksamkeit in % Substanz allein” value is on record as 61,2%, the “Wirksamkeit in % Substanz +Ripcord” value is 90,8% and the “Wirksamkeit in % Substanz +Talcord” value was 65,2%.
For `CN(C)C(=O)N1CCCCC1` [N-Dimethyl-carbamoyl-piperidin], the “Wirksamkeit in % Substanz allein” value is recorded as 0%, the “Wirksamkeit in % Substanz +Ripcord” value was 53,2% and the “Wirksamkeit in % Substanz +Talcord” value is 64,0%. The “Synergistischer Faktor bei Ripcord” value under setting [1] is on record as 1,69. In addition, under setting [2], the “Synergistischer Faktor bei Talcord” value is recorded as 6,60.
For `C=CCN1CCCCC1` [N-1-Allyl-piperidin] the same measures were 0%, 73,2%, 13,2%, 2,32 and 1,36.
For `O=C(OCc1ccccc1)C(c1ccccc1)N1CCCCC1` (centres unmarked) [Phenyl-N-piperidino-essig-säure-benzylester] the same measures were 0%, 96,0%, 28,0%, 3,05 and 2,89.
With `c1cc2c(cc1CN1CCOCC1)OCO2` [N-Piperonyl-morpholin], the mortality at 1000 µg/mL worked out at 0%, the “Wirksamkeit in % Substanz +Ripcord” value is 73,2% and the “Wirksamkeit in % Substanz +Talcord” value is on record as 37,2%. Also, the “Synergistischer Faktor bei Ripcord” value under setting [1] is listed as 2,32. Moreover, the “Synergistischer Faktor bei Talcord” value under setting [2] was 3,84.
Take `c1ccc(CCN2CCOCC2)cc1` [N-1-Phenyl-ethyl-(2)-morpho-lin]: the “Wirksamkeit in % Substanz allein” value turned out to be 0%, the “Wirksamkeit in % Substanz +Ripcord” value is reported as 86,8% and the “Wirksamkeit in % Substanz +Talcord” value is on record as 73,2%. Also, the “Synergistischer Faktor bei Ripcord” value under setting [1] is on record as 2,76. Further, the “Synergistischer Faktor bei Talcord” value under setting [2] was 7,55.
Take `CCCCCN1CCCCC1` [N-1-Pentyl-piperidin]: the mortality at 1000 µg/mL is 0%, the “Wirksamkeit in % Substanz +Ripcord” value was 61,2% and the “Wirksamkeit in % Substanz +Talcord” value is listed as 20,0%. The “Synergistischer Faktor bei Ripcord” value under setting [1] is reported as 1,94. Moreover, the “Synergistischer Faktor bei Talcord” value under setting [2] is given as 2,06.
For the molecule `C(CCCCN1CCCC1)CCCN1CCCC1` [1,8-N,N-Di-pyrrolidino-octan], the “Wirksamkeit in % Substanz allein” value amounted to 0%, the “Wirksamkeit in % Substanz +Ripcord” value is 88,0% and the “Wirksamkeit in % Substanz +Talcord” value was 64,0%. The “Synergistischer Faktor bei Ripcord” value under setting [1] was 2,79. Besides, under setting [2], the “Synergistischer Faktor bei Talcord” value is 6,60.
For `CCC/C=C(\CC)CN1CCCC1` [cis-3-N-pyrrolidino-methyl-hepten-(3)] the same measures were 0%, 50,8%, 16,0%, 1,61 and 1,65.
For `OC(CCl)CN1CCCCC1` (centres unmarked) [1-N-Piperidino-2-hydroxi-3-chlor-propan] the same measures were 0%, 54,8%, 54,8%, 1,74 and 5,65.
On to `c1cc2c(cc1CN1CCCCCC1)OCO2` [N-Piperonyl-hexamethylenimin], for which the mortality at 1000 µg/mL came out at 0%, the “Wirksamkeit in % Substanz +Ripcord” value is reported as 96,0% and the “Wirksamkeit in % Substanz +Talcord” value is reported as 68,0%. Also, the “Synergistischer Faktor bei Ripcord” value under setting [1] is 3,05. Further, the “Synergistischer Faktor bei Talcord” value under setting [2] is 7,01.
Turning to `N#CCN1CCCCCC1` [N-Hexamethylenimino-aceto-nitril], the “Wirksamkeit in % Substanz allein” value turned out to be 0%, the “Wirksamkeit in % Substanz +Ripcord” value was 53,2% and the “Wirksamkeit in % Substanz +Talcord” value is recorded as 14,8%. Under setting [1], the “Synergistischer Faktor bei Ripcord” value is 1,69. Moreover, under setting [2], the “Synergistischer Faktor bei Talcord” value is listed as 1,53.
Consider `c1ccc(C(N2CCCCC2)N2CCCCC2)cc1` [Benzal-di-N,N-piperidin], for which the “Wirksamkeit in % Substanz allein” value was found to be 0%, the “Wirksamkeit in % Substanz +Ripcord” value is given as 40,0% and the “Wirksamkeit in % Substanz +Talcord” value was 18,8%. For the setting “in vivo”, the “Synergistischer Faktor bei Ripcord” value is reported as 1,26 and the “Synergistischer Faktor bei Talcord” value is 1,94.
For `C1CCCC(N2CCOCC2)CC1` [N-Cycloheptyl-morpholin], the mortality at 1000 µg/mL worked out at 0%, the “Wirksamkeit in % Substanz +Ripcord” value was 56,0% and the “Wirksamkeit in % Substanz +Talcord” value is reported as 34,8%. The “Synergistischer Faktor bei Ripcord” value under setting [1] is reported as 1,78. The “Synergistischer Faktor bei Talcord” value under setting [2] is 3,59.

(Values after patent EP0029617A1, “Use of tertiary heterocyclic amines as synergists in pesticides; derivatives of cycloamines” (priority 1979, dated 1981).)
